Measured values: patent US4812443A, “Methods for enhancing differentiation and proliferation of hematopoietic progenitor cells” (Kuraray Co., Ltd., priority 1984, dated 1989)

How the values were obtained:
[1] = system: extracted trachea; assay: Peripheral action, extracted trachea of guinea pigs; design: species or system guinea pig (Hartley-strain); conditions: up to 10^-4 g/ml, 37° C.
Description: (§1) Since the dolichol is a water-insoluble oily liquid, it was used as a solution in sesame oil in the case of oral administration, and as a suspension in a nonionic surfactant (HCO-60, a trade name for a product of Nikko Chemical Co., Ltd.) in the case of intraperitoneal administration and in an in vitro test in the following experiment.
(§2) In the following experiment, ddY-strain male mice, Wistar-strain male rats (Shizuoka Laboratory Animal Center), Japanese white male rabbits (Carely) and Hartley-strain male guinea pigs (Clea Japan Inc.) were used. The animals were kept under conditions including a temperature of 23±1° C., a humidity of 55±10%, an illuminating time (7:00 am to 9.00 pm) and 15 ventilations per hour. The mice and rats were fed with solid feeds MF (a product of Oriental Yeast Co., Ltd.) and the guinea pigs and rabbits were fed with solid feeds GM-3 and RM-1 (Funabashi Farm Co.). They were allowed to take tap water freely. The animals were preliminarily kept for more than one week, and those which were healthy in general conditions were used in the experiments.
Hartley-strain male guinea pigs (350-400 g), 3 per group, were used. The extracted trachea was suspended in Locke-Ringer solution at 37° C. through which air was introduced. The contraction of the trachea was recorded in the same way as in the case of the extracted ileum. […]

[2] = system: late erythrocytic progenitor cells (CFU-e); assay: Differentiation and proliferation of late erythrocytic progenitor cells (CFU-e), cluster colony formation; type: cell-based, mouse (BDF1-strain); conditions: 20 μg/ml, Runs 2 to 4
Procedure: The mouse bone marrow cells used in the following experiments were all prepared as follows:
BDF1 -strain mice (female, 8 to 10 weeks old) were killed by cervical dislocation, and the femurs were collected under sterile conditions. The bone marrow cells were flushed out from the femurs with α-medium, and formed into a single cell suspension by repeated aspiration with a 26-gauge needle fitted to a 1 ml-syringe. The cells were washed two times with α-medium by centrifugation at 200×G for 5 minutes and used in the following experiments.
In accordance with the method of Murphy et al. mentioned above, mouse bone marrow cells were plated at 2.5×10^4 nuclear cells into 0.5 ml of α-medium containing 0.25 unit of erythropoietin, 30% fetal bovine serum, 1% bovine serum albumin, 0.1 mM 2-mercaptoethanol and 0.4% methyl cellulose with 10 μg of dolichol dissolved in 1 μl of ethanol, 10 μg of dolichyl phosphate dispersed in 0.5 μl of dimethyl sulfoxide, 1 μl of ethanol or 0.5 μl of dimethyl sulfoxide in a 16 mm.phi. tissue culture plate, and incubated at 37° C. in a humidified atmosphere of 5% carbon dioxide in air for 2 days. The number of cluster colonies consisting of 8 to 64 erythroblasts derived from CFU-e in the tissue culture plate was scored with an inverted microscope. The experiment was carried out by 6 replica assays for each group, and the average number of the colonies formed was determined. The results are shown in Table 3, in the rows of Runs 2 to 4.

[3] = system: extracted ileum; assay: Peripheral action, extracted ileum of guinea pigs; design: species or system guinea pig (Hartley-strain); conditions: up to 10^-4 g/ml; 32° C.
Description: as §1
In the following experiment, ddY-strain male mice, Wistar-strain male rats (Shizuoka Laboratory Animal Center), Japanese white male rabbits (Carely) and Hartley-strain male guinea pigs (Clea Japan Inc.) were used. The animals were kept under conditions including a temperature of 23±1° C., a humidity of 55±10%, an illuminating time (7:00 am to 9.00 pm) and 15 ventilations per hour. […]
Hartley-strain male guinea pigs (350 to 400 g), 3 per group, were used, and the extracted ileum samples were suspended in Tyrode solution at 32° C. through which air was introduced. The contraction of the ileum was recorded on an ink-writing oscillograph (EMP-3004, Nippon Photoelectric Co. through an isotonic transducer (TD-112S, Nippon Photoelectric Co.). The direct action of dolichol and the antagonistic action of dolichol against acetylcholine, histamine and nicotine in a concentration of 10^-6 g/ml, 10^-5 g/ml, and 10^-4 g/ml, respectively, were examined.

[4] = system: mice; assay: Acute toxicity of dolichol in mice; type: in vivo, mouse (ddY-strain); conditions: 5,000 mg/kg orally or 1,000 mg/kg intraperitoneally
Procedure: (1) Dolichol synthesized in Referential Example 1 below was used as a solution in sesame oil in the case of oral administration, or as a suspension in HCO-60 (a trade name for a nonionic surfactant made by Nikko Chemical Co., Ltd.) in the case of intraperitoneal administration.
ddY-strain mice (21-27 g), 6 per group, were used. Dolichol was administered to the mice in a dose of 5,000 mg/kg orally, or 1,000 mg/kg intraperitoneally on the 1st day of the test, and the mice were then observed for toxic symptoms and mortality for seven days. The body weights of the mice were measured before administration and on the 1st and 7th days. Control groups were each given sesame oil or HCO-60, and observed and weighed in the same way as in the case of the groups to which dolichol was administered. On the 7th day, all the mice were dissected and visually observed.

[5] = system: blood sugar; assay: Blood sugar lowering action in rats (glucose-oxidase method); type: in vivo, rat (Wistar-strain); conditions: 150, 300 and 600 mg/kg; two hours after administration; vs control
Description: as §1, §2
Wistar-strain male rats (180-210 g), 6 per group, were used. Two hours after administration of dolichol to the rats, the blood was taken from the abdominal main vein of the rats, and the blood sugar level was measured by the glucose-oxidase method.

[6] = system: acetic acid writhing; assay: Analgesic action in mice (acetic acid writhing method); type: in vivo, mouse (ddY-strain); conditions: 150, 300 and 600 mg/kg; one hour before acetic acid; vs control
Description: as §1, §2
ddY-strain male mice (27-30 g), 6 per group, were used. One hour after administration of dolichol to the mice, 0.6% acetic acid was intraperitoneally administered to the mice in a dose of 0.1 ml/10 g. […] The inhibitory action on acetic acid writhing was thus examined.

[7] = Diuretic action in rats; type: in vivo, rat (Wistar-strain); conditions: 150, 300 and 600 mg/kg; 6 hours after administration; vs control
Description: as §1, §2
Wistar-strain male rats (80-90 g), 6 per group, were used. Immediately after administration of dolichol to the rats, normal saline solution was orally administered to the rats in a dose of 2.5 ml/100 g. […] Urine was taken 6 hours after administration of dolichol, and its amount was measured.

## dolichol
[1]; extracted trachea
  Antagonistic action against isoproterenol: nor antagonistic action
[1]
  Direct action on extracted trachea: no direct action
[2]; 2 days, erythropoietin 0.25 unit, mean ± S.E., 6 replicas, solvent controls 124.2 ± 2.7, 246.0 ± 5.0, 124.7 ± 2.9
  Number of colonies formed in the dolichols-added group (CFU-e): 151.0 ± 2.2
[2]; vs solvent-added control group
  Percent increase (%) of colony formation (CFU-e): +21.6%
[3]
  Direct action on extracted ileum: no direct action
[4]; 1st and 7th days, vs control
  Changes in body weight: no sigificant difference was noted
[4]; 7th day
  Abnormality in dissection: No abnormality was noted
[4]; seven days
  Mortality: no case of death in all of the mice tested
[5]
  Blood sugar level: no significant difference was noted
[6]
  Inhibitory action on acetic acid writhing: no significant difference was noted
[7]
  Diuretic action (amount of urine): no significant difference was noted
